# According to patent US20260297083A1, “SUBSTITUTED ACETYLENE COMPOUND DERIVATIVES AND THEIR PHARMACEUTICAL USE” (AVELOS THERAPEUTICS INC., priority 2023, published 2026):
# System: DLD-1 BRCA2(−/−) Cell
# Assay: Cell viability assay (Resazurin) in DLD1-BRCA2 cells
# Assay type: cell-based
# Details: Homo sapiens, DLD-1, 336 h, 14 days, 1,500 cells/well, final DMSO 1%
# How it was run: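 DLD1-BRCA2 KG cells seeded at 1,500/well (parental 600/well) in RPMI-1640 with 10% FBS, compound added after 4 h (1% DMSO), media replaced every 3-4 days over 14 days at 37° C. Viability read by resazurin (0.1 mg/ml, 4 h) fluorescence at Ex/Em 560/590 nm; IC50 fitted.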
row,IC50,Compound
1,< 1000 nM,"Cc1cc(C(F)(F)F)cc(N2[C@H](C(=O)N(CC#Cc3cnc(N4CCOCC4)c(C)n3)c3ccc(F)c(C)c3)CCS2(=O)=O)n1 [Example 45, (S)-N-(4-fluoro-3-methylphenyl)-2-(6-methyl-4-(trifluoromethyl)pyridin-2-yl)-N-(3-(6-methyl-5-morpholinopyrazin-2-yl)prop-2-yn-1-yl)isothiazolidine-3-carboxamide 1,1-dioxide]"
2,< 1000 nM,"Cc1cc(C(F)(F)F)cc(N2[C@H](C(=O)N(CC#Cc3ccc(C(N)=O)nc3)c3ccc(F)c(C)c3)CCS2(=O)=O)n1 [Example 95, (S)-N-(3-(6-carbamoylpyridin-3-yl)prop-2-yn-1-yl)-N-(4-fluoro-3-methylphenyl)-2-(6-methyl-4-(trifluoromethyl)pyridin-2-yl)isothiazolidine-3-carboxamide 1,1-dioxide]"
3,1100 to 5000 nM,"Cc1cc(C(F)(F)F)cc(N2[C@H](C(=O)N(CC#Cc3cncn3C)c3ccc(F)c(C)c3)CCS2(=O)=O)n1 [Example 102, (S)-N-(4-fluoro-3-methylphenyl)-N-(3-(1-methyl-1H-imidazol-5-yl)prop-2-yn-1-yl)-2-(6-methyl-4-(trifluoromethyl)pyridin-2-yl)isothiazolidine-3-carboxamide 1,1-dioxide]"
4,< 1000 nM,"Cc1cc(C(F)(F)F)cc(N2[C@H](C(=O)N(CC#Cc3cnc(N4CC5CCC(C4)O5)cn3)c3ccc(F)c(C)c3)CCS2(=O)=O)n1 [Example 48, (3S)-N-(3-(5-(8-oxa-3-azabicyclo[3.2.1]octan-3-yl)pyrazin-2-yl)prop-2-yn-1-yl)-N-(4-fluoro-3-methylphenyl)-2-(6-methyl-4-(trifluoromethyl)pyridin-2-yl)isothiazolidine-3-carboxamide 1,1-dioxide]"
5,1100 to 5000 nM,"Cc1cc(C(F)(F)F)cc(N2[C@H](C(=O)N(CC#Cc3cnc(N4C[C@@H](C)O[C@@H](C)C4)cn3)c3ccc(F)c(C)c3)CCS2(=O)=O)n1 [Example 47, (S)-N-(3-(5-((2S,6R)-2,6-dimethylmorpholino)pyrazin-2-yl)prop-2-yn-1-yl)-N-(4-fluoro-3-methylphenyl)-2-(6-methyl-4-(trifluoromethyl)pyridin-2-yl)isothiazolidine-3-carboxamide 1,1-dioxide]"
6,> 5100 nM,"Cc1ccc(F)c(N(CC#Cc2cnc(N3CCOCC3)cn2)C(=O)[C@H]2CCS(=O)(=O)N2c2cc(C(F)(F)F)cc(C)n2)c1 [Example 41, (R)-N-(2-fluoro-5-methylphenyl)-2-(6-methyl-4-(trifluoromethyl)pyridin-2-yl)-N-(3-(5-morpholinopyrazin-2-yl)prop-2-yn-1-yl) isothiazolidine-3-carboxamide 1,1-dioxide]"
7,1100 to 5000 nM,"CCN(CC)c1ccc(C#CCN(C(=O)[C@@H]2CCS(=O)(=O)N2c2cc(C(F)(F)F)cc(C)n2)c2ccc(F)c(C)c2)nn1 [Example 25, (S)-N-(3-(6-(diethylamino)pyridazin-3-yl)prop-2-yn-1-yl)-N-(4-fluoro-3-methylphenyl)-2-(6-methyl-4-(trifluoromethyl)pyridin-2-yl)isothiazolidine-3-carboxamide 1,1-dioxide]"
8,> 5100 nM,"Cc1cc(C(F)(F)F)cc(N2[C@H](C(=O)N(CC#Cc3cnc4c(c3)C(=O)N(C)C4=O)c3ccc(F)c(C)c3)CCS2(=O)=O)n1 [Example 100, (S)-N-(4-fluoro-3-methylphenyl)-2-(6-methyl-4-(trifluoromethyl)pyridin-2-yl)-N-(3-(6-methyl-5,7-dioxo-6,7-dihydro-5H-pyrrolo[3,4-b]pyridin-3-yl)prop-2-yn-1-yl)isothiazolidine-3-carboxamide 1,1-dioxide]"
9,< 1000 nM,"Cc1cc(C(F)(F)F)cc(N2[C@H](C(=O)N(CC#Cc3ncnc(N4CCOCC4)n3)c3ccc(F)c(C)c3)CCS2(=O)=O)n1 [Example 103, (S)-N-(4-fluoro-3-methylphenyl)-2-(6-methyl-4-(trifluoromethyl)pyridin-2-yl)-N-(3-(4-morpholino-1,3,5-triazin-2-yl)prop-2-yn-1-yl)isothiazolidine-3-carboxamide 1,1-dioxide]"
10,< 1000 nM,"Cc1cc(C(F)(F)F)cc(N2C(=O)CC[C@H]2C(=O)N(CC#Cc2ccc(N)nn2)c2ccc(F)c(C)c2)n1 [Example 5, (2S)-N-(3-(6-aminopyridazin-3-yl)prop-2-ynyl]-N-(4-fluoro-3-methyl-phenyl)-1-[6-methyl-4-(trifluoromethyl)-2-pyridyl]-5-oxo-pyrrolidine-2-carboxamide]"
11,< 1000 nM,"Cc1cc(C(F)(F)F)cc(N2[C@H](C(=O)N(CC#Cc3cc(N4CCOCC4)ncn3)c3ccc(F)c(C)c3)CCS2(=O)=O)n1 [Example 75, (S)-N-(4-fluoro-3-methylphenyl)-2-(6-methyl-4-(trifluoromethyl)pyridin-2-yl)-N-(3-(6-morpholinopyrimidin-4-yl)prop-2-yn-1-yl)isothiazolidine-3-carboxamide 1,1-dioxide]"
12,< 1000 nM,"Cc1cc(C(F)(F)F)cc(N2C(=O)CC[C@H]2C(=O)N(CC#Cc2ccc(F)cn2)c2ccc(F)c(C)c2)n1 [Example 8, (S)-N-(4-fluoro-3-methylphenyl)-N-(3-(5-fluoropyridin-2-yl)prop-2-yn-1-yl)-1-(6-methyl-4-(trifluoromethyl)pyridin-2-yl)-5-oxopyrrolidine-2-carboxamide]"
13,1100 to 5000 nM,"Cc1cc(C(F)(F)F)cc(N2[C@H](C(=O)N(CC#Cc3ccc(N)nn3)c3ccc(F)c(C)c3)CN(C(C)C)S2(=O)=O)n1 [Example 110, (S)-N-(3-(6-aminopyridazin-3-yl)prop-2-yn-1-yl)-N-(4-fluoro-3-methylphenyl)-5-isopropyl-2-(6-methyl-4-(trifluoromethyl)pyridin-2-yl)-1,2,5-thiadiazolidine-3-carboxamide 1,1-dioxide]"
14,< 1000 nM,"Cc1cc(C(F)(F)F)cc(N2[C@H](C(=O)N(CC#Cc3cnc4c(c3)CN(C)C4=O)c3ccc(F)c(C)c3)CCS2(=O)=O)n1 [Example 98, (S)-N-(4-fluoro-3-methylphenyl)-2-(6-methyl-4-(trifluoromethyl)pyridin-2-yl)-N-(3-(6-methyl-7-oxo-6,7-dihydro-5H-pyrrolo[3,4-b]pyridin-3-yl)prop-2-yn-1-yl)isothiazolidine-3-carboxamide 1,1-dioxide]"
15,< 1000 nM,"Cc1cc(C(F)(F)F)cc(N2[C@H](C(=O)N(CC#Cc3cnc(N4CCOCC4)cn3)c3ccc(F)c(C)c3)CCS2(=O)=O)n1 [Example 39, (S)-N-(4-fluoro-3-methylphenyl)-2-(6-methyl-4-(trifluoromethyl)pyridin-2-yl)-N-(3-(5-orpholinopyrazin-2-yl)prop-2-yn-1-yl)isothiazolidine-3-carboxamide 1,1-dioxide]"
16,< 1000 nM,"Cc1cc(C(F)(F)F)cc(N2C(=O)CC[C@H]2C(=O)N(CC#Cc2cncn2C)c2ccc(F)c(C)c2)n1 [Example 9, (S)-N-(4-fluoro-3-methylphenyl)-N-(3-(1-methyl-1H-imidazol-5-yl)prop-2-yn-1-yl)-1-(6-methyl-4-(trifluoromethyl)pyridin-2-yl)-5-oxopyrrolidine-2-carboxamide]"
17,< 1000 nM,"Cc1cc(C(F)(F)F)cc(N2[C@H](C(=O)N(CC#Cc3cnc(-c4c[nH]nn4)cn3)c3ccc(F)c(C)c3)CCS2(=O)=O)n1 [Example 56, (S)-N-(3-(5-(1H-1,2,3-triazol-4-yl)pyrazin-2-yl)prop-2-yn-1-yl)-N-(4-fluoro-3-methylphenyl)-2-(6-methyl-4-(trifluoromethyl)pyridin-2-yl)isothiazolidine-3-carboxamide 1,1-dioxide]"
18,< 1000 nM,"Cc1cc(C(F)(F)F)cc(N2[C@H](C(=O)N(CC#Cc3ccc(C(N)=O)cn3)c3ccc(F)c(C)c3)CCS2(=O)=O)n1 [Example 97, (S)-N-(3-(5-carbamoylpyridin-2-yl)prop-2-yn-1-yl)-N-(4-fluoro-3-methylphenyl)-2-(6-methyl-4-(trifluoromethyl)pyridin-2-yl)isothiazolidine-3-carboxamide 1,1-dioxide]"
19,< 1000 nM,"Cc1cc(C(F)(F)F)cc(N2[C@H](C(=O)N(CC#Cc3ccc(=O)[nH]n3)c3ccc(F)c(C)c3)CCS2(=O)=O)n1 [Example 26, (S)-N-(4-fluoro-3-methylphenyl)-2-(6-methyl-4-(trifluoromethyl)pyridin-2-yl)-N-(3-(6-oxo-1,6-dihydropyridazin-3-yl)prop-2-yn-1-yl)isothiazolidine-3-carboxamide 1,1-dioxide]"
20,1100 to 5000 nM,"Cc1cc(C(F)(F)F)cc(N2[C@H](C(=O)N(CC#Cc3cncc(C(=O)N4CCOCC4)n3)c3ccc(F)c(C)c3)CCS2(=O)=O)n1 [Example 70, (S)-N-(4-fluoro-3-methylphenyl)-2-(6-methyl-4-(trifluoromethyl)pyridin-2-yl)-N-(3-(6-(morpholine-4-carbonyl)pyrazin-2-yl)prop-2-yn-1-yl)isothiazolidine-3-carboxamide 1,1-dioxide]"
21,< 1000 nM,Cc1cc(C(F)(F)F)cc(N2[C@H](C(=O)N(CC#Cc3ccc(C(N)=O)nn3)c3ccc(F)c(C)c3)CCS2(=O)=O)n1 [Example 29]
22,1100 to 5000 nM,"Cc1cc(C(F)(F)F)cc(N2[C@H](C(=O)N(CC#Cc3ccc(N4CCOCC4)nn3)c3ccc(F)c(C)c3)CCS2(=O)=O)n1 [Example 23, (S)-N-(4-fluoro-3-methylphenyl)-2-(6-methyl-4-(trifluoromethyl)pyridin-2-yl)-N-(3-(6-morpholinopyridazin-3-yl)prop-2-yn-1-yl)isothiazolidine-3-carboxamide 1,1-dioxide]"
23,1100 to 5000 nM,"Cc1cc(C(F)(F)F)cc(N2[C@H](C(=O)N(CC#Cc3ccc(N)nn3)c3ccc(F)c(C)c3)CN(C)S2(=O)=O)n1 [Example 109, (S)-N-(3-(6-aminopyridazin-3-yl)prop-2-yn-1-yl)-N-(4-fluoro-3-methylphenyl)-5-methyl-2-(6-methyl-4-(trifluoromethyl)pyridin-2-yl)-1,2,5-thiadiazolidine-3-carboxamide 1,1-dioxide]"
